Among the data in patent US20240316060A1, “LASER AND BCL-2 INHIBITORS COMBINATION TO TREAT SOLID TUMORS” (Board of Regents, The University of Texas System, priority 2023, published 2024) are Early apoptosis, Late apoptosis and Live values, retold here.

This experiment concerns 3D spheroids. In words: Annexin-V assay in 3D spheroids (flow-cytometry). The class given is cell-based. Conditions: without laser. The source says: Annexin-V Assay in 3D Spheroids
Table 2 represents the flow-cytometry of solid tumors treated with various modalities including positive controls (DMSO and H2O2) compared with boron nitride/navitoclax formulations with and without laser excitation.

Molecule `C[S+](C)[O-]` [DMSO] returned an Early apoptosis of 9.51%, a Late apoptosis of 5.23% and a Live of 85%.

As for `CC1(C)CCC(c2ccc(Cl)cc2)=C(CN2CCN(c3ccc(C(=O)NS(=O)(=O)c4ccc(N[C@H](CCN5CCOCC5)CSc5ccccc5)c(S(=O)(=O)C(F)(F)F)c4)cc3)CC2)C1` [Free NAVI, Navitoclax], the Early apoptosis came to 32.04%, the Late apoptosis was found to be 9.64% and the Live is reported as 58%.

`OO` [H2O2]: the Early apoptosis is 58.37%, the Late apoptosis was determined as 40.12% and the Live is listed as 1%.
